Experimental data from patent US20160024062A1, “ISOXAZOLINE DERIVATIVES FOR CONTROLLING INVERTEBRATE PESTS” (NOVARTIS TIERGESUNDHEIT AG, priority 2011, published 2016).

Columns and labels:
[1] = tested on: Ctenocephalides felis (cat flea); test: Activity in vivo against Ctenocephalides felis (cat flea) on Mongolian gerbils (per oral application); details: dose 3.2 mg/kg, oral gavage, live fleas counted 48 h after infestation, vs placebo (Abbot's formula)
Description: On day 0, gerbils are treated orally by gavage with the test compound formulated at a given dose. Immediately after treatment, they are infested with a mixed adult population of cat fleas. Evaluation of efficacy is performed 48 h infestation by counting the numbers of live fleas recovered from the gerbils. Efficacy is expressed as comparison with a placebo treated group using the Abbot's formula.

[2] = tested on: Ctenocephalides felis (cat flea); test: Activity in vivo against Ctenocephalides felis (cat flea) on Mongolian gerbils (spray application); details: live fleas counted 24 h and 48 h after infestation, vs placebo (Abbot's formula)
Description: On day 0, gerbils are treated with the test compound at a given dose by spray application. On day +1, the animals are infested with a mixed adult population of cat fleas. Evaluation of efficacy is performed 24 h and 48 h infestation by counting the numbers of live fleas recovered from the gerbils. Efficacy is expressed as comparison with a placebo treated group using the Abbot's formula.

[3] = tested on: Rhipicephalus sanquineus nymphs; test: Activity in vivo against Rhipicephalus sanquineus nymphs on Mongolian gerbils (spray application); details: engorged nymphs counted seven days after infestation, vs placebo (Abbot's formula)
Description: On day 0, gerbils are treated with the test compound at a given dose by spray application. On day +1 (+2), the animals are infested with nymphs of R. sanguineus. Ticks are left on the animals until full repletion. Seven days after infestation nymphs dropped off fully engorged are collected and counted. Efficacy in killing is expressed as a tick number reduction in comparison with a placebo treated group, using the Abbot's formula.

Row | SMILES | Efficacy in killing % [1] [%] | Efficacy in killing % ([2]; dose 10 mg/kg) [%] | melting point [°C] | Efficacy in killing % ([3]; dose 10 mg/kg) [%] | Efficacy in killing % ([2]; dose 32 mg/kg) [%] | Efficacy in killing % ([3]; dose 100 mg/kg) [%]
1 | Cc1oc(C2=NOC(c3cc(Cl)cc(Cl)c3)(C(F)(F)F)C2)cc1C(=O)NCC(=O)NCC(F)(F)F (stereo not drawn) [Compound 1.19, 5-(5-(3,5-dichlorophenyl)-5-(trifluoromethyl)-4,5-dihydroisoxazol-3-yl)-2-methyl-N-(2-oxo-2-((2,2,2-trifluoroethyl)amino)ethyl)furan-3-carboxamide] | 99 | 94 | 172 to 174 | 100 | – | –
2 | Cc1sc(C2=NOC(c3cc(Cl)cc(Cl)c3)(C(F)(F)F)C2)cc1C(=O)NCC(=O)NCC#N (stereo not drawn) [Compound 1.32, N-(2-((cyanomethyl)amino)-2-oxoethyl)-5-(5-(3,5-dichlorophenyl)-5-(trifluoromethyl)-4,5-dihydroisoxazol-3-yl)-2-methylthiophene-3-carboxamide] | – | – | – | – | 96 | 85
